US20190256498A1, “CRYSTALLINE FORMS OF DACLATASVIR DIHYDROCHLORIDE” (LUPIN LIMITED, priority 2016, published 2019)
Counter-ions that a name gives are not always drawn.

Legend:
[1] = Polymorphic stability of crystalline forms over a period of time; type: physicochemical
[2] = Storage stability of crystalline form L2 (temperature/RH conditions, HPLC purity); type: physicochemical
[3] = neat crystalline dihydrochloride salts N1 and N2, screening studies; cited from earlier work

SMILES: COC(=O)N[C@H](C(=O)N1CCC[C@H]1c1nc(-c2ccc(-c3ccc(-c4c[nH]c([C@@H]5CCCN5C(=O)[C@@H](NC(=O)OC)C(C)C)n4)cc3)cc2)c[nH]1)C(C)C [form L1, N,N′-[[1,1′-biphenyl]-4,4′-diylbis[1H-imidazole-5,2-diyl-(2S)-2,1-pyrrolidinediyl[(1S)-1-(1-methylethyl)-2-oxo-2,1-ethanediyl]]]bis-carbamic acid, C,C′-dimethyl ester, hydrochloride (1:2)]
- polymorphic stability (conversion to any other polymorphic form) [1]: stable and do not get converted to any other polymorphic form

SMILES: COC(=O)N[C@H](C(=O)N1CCC[C@H]1c1nc(-c2ccc(-c3ccc(-c4c[nH]c([C@@H]5CCCN5C(=O)[C@@H](NC(=O)OC)C(C)C)n4)cc3)cc2)c[nH]1)C(C)C [form L2, N,N′-[[1,1′-biphenyl]-4,4′-diylbis[1H-imidazole-5,2-diyl-(2S)-2,1-pyrrolidinediyl[(1S)-1-(1-methylethyl)-2-oxo-2,1-ethanediyl]]]bis-carbamic acid, C,C′-dimethyl ester, hydrochloride (1:2)]
- stability ([2]; 5±3° C.): stable
- stability ([2]; 25±2° C./60±5% RH): stable
- stability ([2]; 40±2° C./75±5% RH): stable

SMILES: COC(=O)N[C@H](C(=O)N1CCC[C@H]1c1nc(-c2ccc(-c3ccc(-c4c[nH]c([C@@H]5CCCN5C(=O)[C@@H](NC(=O)OC)C(C)C)n4)cc3)cc2)c[nH]1)C(C)C [form N-2, N,N′-[[1,1′-biphenyl]-4,4′-diylbis[1H-imidazole-5,2-diyl-(2S)-2,1-pyrrolidinediyl[(1S)-1-(1-methylethyl)-2-oxo-2,1-ethanediyl]]]bis-carbamic acid, C,C′-dimethyl ester, hydrochloride (1:2)]
- thermodynamic stability among polymorphs [3]: thermodynamically most stable polymorph
